Assay results: patent US9464326B2, “Total and phosphorylated IL-1 receptor-associated kinase-1 and IL-1 receptor-associated kinase-4 as a biomarker for cancer progression and chemotherapy resistance” (University of Maryland, Baltimore, priority 2012, dated 2016)

Tests used:
melanoma cells = experiment: Western blot of phosphorylated NF-KB; assay type: cell-based, human; details: 48 hrs, vs DMSO, FIG. 7C
Experimental: FIG. 7. TLR and TLR signaling-related protein expression profiles on melanoma cell lines. (A) The expression levels of TLR1-TLR10 and various TLR-related proteins were examined by Western blot in samples from human melanoma cell lines. (B) The TLR1-TLR2 ligand Pam3CysK4 was added to A375 cells for 48 hrs. Cytokine and chemokine production by was determined using a Milliplex cytokine/chemokine array. (C) IRAK-1,-4 inhibitor or vehicle alone (DMSO) was added to melanoma cells for 48 hrs. The level of phosphorylated and non-phosphorylated p65 subunit of NF-KB was determined by Western blot. (D) Cytokine and chemokine levels in the supernatant A375 cell culture were examined using a Milliplex cytokine/chemokine array 48 hours after adding IRAK-1,-4 inhibitor or DMSO. ANOVA; **P<0.001, *P<0.05.
Total cell extracts were prepared from melanoma cells. […] Melanoma tissue arrays were purchased from US Biomax, Inc (Rockville, Md.). For immunohistochemical staining samples were stained with mouse monoclonal anti-human phosphor-IRAK.-4 antibody (Abnova; dilution, 3.5 μg/ml) or normal mouse serum. […] IHC specimens were analyzed using “quick score” system in which the intensity of the immunohistochemical reaction was scored by multiplying the intensity 1 (weak), 2 (moderate), and 3 (strong) and the proportion of cells staining positively 0 (<10%), 1 (10-25%), 2 (26-50%), 3 (51-75%) or 4 (>75%).

A375 melanoma cells = experiment: A375 melanoma xenograft model; details: IRAK-1,-4 inhibitor 35 mg/kg intratumorally, vinblastine 0.25 mg/kg i.p.; control 17 days
Experimental: (A-B) NSG mice (n=5) were injected subcutaneously with A375 melanoma cells. When tumors reached a size of approximately 50 mm^2 mice remained untreated or injected intraperitoneally with vinblastine mg/kg; administered every 2 days for 10 days), or peritumorally with IRAK-1,-4 inhibitor (35 mg/kg), or vinblastine plus IRAK.-1,-4 inhibitor. Tumor sizes were calculated by measuring perpendicular by longitudinal diameter;*, P<0.05. Mouse survival data were analyzed using the exact log-rank test;*, P<0.05, **P<0.001.
NOD.Cg-Prkdc^scid Il2rg^tmWJZ; SzJ IL2RG (NSG) mice (Jackson Laboratories, Bar Harbor, Me.) were subcutaneously (s.c.) injected with 2.5×10^6 A375 melanoma cells delivered in PBS. […] When tumors reached a size of approximately 50 mm^2 mice were injected intratumorally (i.t.) with 35 mg/kg of IRAK-1,-4 inhibitor or an equal volume of vehicle (DMSO). Mice were intraperitoneally (i.p.) injected with vinblastine (0.25 mg/kg) every 2 days for 5 days starting on the same day that mice received with IRAK-1,-4 inhibitor. Tumor sizes were analyzed using a mixed model approach for repeated measurements and mouse survival data were analyzed with the exact log-rank test.

CCRF-CEM cells = experiment: Cellular senescence assay (SA-β-gal); assay type: cell-based, human; details: 5 μM, within 48 hours, maintained to 96 hour, FIG. 15A
Experimental: Analysis of senescence-associated β-galactosidase (SA-β-gal) activity was performed using the 96-Well Cellular Senescence Assay Kit (Cell Biolabs, San Diego, Calif.) as per the manufacturer's protocol. In brief, cells were washed with PBS, lysed with cell lysis buffer, and incubated at 37° C. with SA-β-gal substrate for 1 hour. A quantitative Cellular Senescence Assay Kit (SA-β-gal, Fluorometric) (Cell Biolabs, San Diego, Calif.) was used for more quantitative measurement of SA-β-gal activity by flow cytometry. Briefly, control and treated CCRF-CEM cells were incubated with 1× cell pretreatment solution in culture medium for 2 hrs, and the fluorogenic substrate was then directly added into the culture. After 4 hrs, the cells were washed and analyzed by flow cytometry.

HH = experiment: Proliferation (3H-thymidine) of HH; assay type: cell-based, human; details: 3H-thymidine uptake, 72 h
Text: CCRF-CEM, CEM/C1, CEM/C2, CEM-C7, Jurkat, Loucy, Molt-4, HSB-2, SUP-T1, Hut 78, HH, Hut 102, MO, and H9 T-leukemia and T-lymphoma cell lines were purchased from the American Type Culture Collection (Manassas, Va., USA). All of the cell lines were initially expanded and cryopreserved within one month of receipt. Cells were typically used for 6 months at which time a fresh vial of cryopreserved cells was used. Total T cells from healthy donors were isolated via negative selection followed by positive selection using a CD3+ selection kit (Invitrogen, Carlsbad, Calif.). T cells were isolated from patients with T-ALL bone marrow or peripheral blood samples containing more than 70% leukemia cells using a CD2+ isolation kit (STEMCELL Technologies, Vancouver, Canada). All tissues were collected under institutional IRB-approved protocols and all participants gave written informed assent/consent. For in vitro experiments, T-ALL cells were cultured in AIM-V medium supplemented with 20% human AB serum in the presence of recombinant human stem cell factor (50 ng/mL; Amgen, Thousand Oaks, Calif.), insulin (20 nM; Sigma-Aldrich, St Louis, Mo., USA) and IL-7 (50 ng/mL; R&D Systems, Minneapolis, Minn., USA). […]
Cells were cultured in a 96-well plate (Corning Costar, Corning, N.Y., USA) with various concentrations of TLR ligands 1-9, starting at 10 μg/ml, in a final volume of 200 ul. […] After this time point, cells were harvested with a Packard Filter-Mate-96 cell harvester (Perkin Elmer, Waltham, Mass., USA) and counted on Packard Top Count-NXT (Perkin Elmer, Waltham, Mass., USA). Results were expressed as average counts per minute (cpm). […] Forty-eight hours later, proliferation (±SD) was determined by ^3H-thymidine incorporation. Alternatively, apoptosis was measured by flow cytometry after staining cells with Annexin-V (BD Pharmingen, San Diego, Calif., USA) and propidium iodide (Sigma). Cell number was counted under microscopy by staining cells with trypan blue. […]

Jurkat = experiment: Proliferation (3H-thymidine) of Jurkat; assay type: cell-based, human; details: 3H-thymidine uptake, 72 h
Text: CCRF-CEM, CEM/C1, CEM/C2, CEM-C7, Jurkat, Loucy, Molt-4, HSB-2, SUP-T1, Hut 78, HH, Hut 102, MO, and H9 T-leukemia and T-lymphoma cell lines were purchased from the American Type Culture Collection (Manassas, Va., USA). All of the cell lines were initially expanded and cryopreserved within one month of receipt. Cells were typically used for 6 months at which time a fresh vial of cryopreserved cells was used. Total T cells from healthy donors were isolated via negative selection followed by positive selection using a CD3+ selection kit (Invitrogen, Carlsbad, Calif.). T cells were isolated from patients with T-ALL bone marrow or peripheral blood samples containing more than 70% leukemia cells using a CD2+ isolation kit (STEMCELL Technologies, Vancouver, Canada). All tissues were collected under institutional IRB-approved protocols and all participants gave written informed assent/consent. For in vitro experiments, T-ALL cells were cultured in AIM-V medium supplemented with 20% human AB serum in the presence of recombinant human stem cell factor (50 ng/mL; Amgen, Thousand Oaks, Calif.), insulin (20 nM; Sigma-Aldrich, St Louis, Mo., USA) and IL-7 (50 ng/mL; R&D Systems, Minneapolis, Minn., USA). In other experiments, protein lysate was collected using the Full Moon Biosystems (Sunnyvale, Calif., USA) buffer prior to protein examination by western blot or protein array.
Cells were cultured in a 96-well plate (Corning Costar, Corning, N.Y., USA) with various concentrations of TLR ligands 1-9, starting at 10 μg/ml, in a final volume of 200 ul. TLR ligands were diluted 2-fold. Cell lines (25-40×10^3/well) were cultured for 54 hours, whereas fresh patient-derived T-ALL cells (200×10^3/well) were cultured for 30 hours prior to adding [^3H]-thymidine for 18 hours. After this time point, cells were harvested with a Packard Filter-Mate-96 cell harvester (Perkin Elmer, Waltham, Mass., USA) and counted on Packard Top Count-NXT (Perkin Elmer, Waltham, Mass., USA). Results were expressed as average counts per minute (cpm). In some experiments CCRF-CEM cells were pre-treated with TLR1-TLR2 ligand (Pam3CysK4; 2.5 ug/ml) for 48 hrs, washed, and then cultured in the presence of varying concentrations of FBS. Forty-eight hours later, proliferation (±SD) was determined by ^3H-thymidine incorporation. Alternatively, apoptosis was measured by flow cytometry after staining cells with Annexin-V (BD Pharmingen, San Diego, Calif., USA) and propidium iodide (Sigma). Cell number was counted under microscopy by staining cells with trypan blue. […]

Molecule | phosphorylated NF-KB (p-NF-KB) (melanoma cells) | median survival (A375 melanoma cells) | increase of SA-β-gal activity (CCRF-CEM cells) | Proliferative effects of TLR ligands (HH) | Proliferative effects of TLR ligands (Jurkat)
O=C(Nc1nc2ccccc2n1CCN1CCOCC1)c1cccc([N+](=O)[O-])c1 [IRAK-1,-4 inhibitor] | marked reduction | 19 days | three-fold | – | –
tripalmitoyl-S-(bis(palmitoyloxy)propyl)-Cys-Ser-(Lys)3-Lys [Pam3Cysk4] | – | – | – | ∘ | ∘
